Reference: ChEMBL document CHEMBL1782045, “Discovery, synthesis, and investigation of the antitumor activity of novel piperazinylpyrimidine derivatives” (Eur J Med Chem, 2011)

What was measured:
PC-3 = assay: Growth inhibition of human PC3 cells after 48 hrs by sulforhodamine B assay; format: functional; conditions: PC-3, 48 h
CAKI-1 = assay: Growth inhibition of human Caki1 cells after 48 hrs by sulforhodamine B assay; format: functional; conditions: CAKI-1, 48 h
HOP-92 = assay: Growth inhibition of human HOP92 cells after 48 hrs by sulforhodamine B assay; format: functional; conditions: HOP-92, 48 h
BT-549 = assay: Growth inhibition of human BT549 cells after 48 hrs by sulforhodamine B assay; format: functional; conditions: BT-549, 48 h
MCF7 = assay: Growth inhibition of human MCF7 cells after 48 hrs by sulforhodamine B assay; format: functional; conditions: MCF7, 48 h
UO-31 = assay: Growth inhibition of human UO31 cells after 48 hrs by sulforhodamine B assay; format: functional; conditions: UO-31, 48 h
Malme-3M = assay: Growth inhibition of human MALME-3M cells after 48 hrs by sulforhodamine B assay; format: functional
NCI-H23 = assay: Growth inhibition of human NCI-H23 cells after 48 hrs by sulforhodamine B assay; format: functional; conditions: NCI-H23, 48 h
OVCAR-8 = assay: Growth inhibition of human OVCAR8 cells after 48 hrs by sulforhodamine B assay; format: functional; conditions: OVCAR-8, 48 h
EKVX [1] = assay: Cytotoxicity against human EKVX cells after 48 hrs by sulforhodamine B assay; format: cell-based
LOX IMVI = assay: Cytotoxicity against human LOXIMVI cells after 48 hrs by sulforhodamine B assay; format: cell-based
SK-MEL-28 = assay: Growth inhibition of human SK-MEL-28 cells after 48 hrs by sulforhodamine B assay; format: functional; conditions: SK-MEL-28, 48 h
EKVX [2] = assay: Growth inhibition of human EKVX cells after 48 hrs by sulforhodamine B assay; format: functional
[3] = target: T1, Receptor-type tyrosine-protein kinase FLT3 (Homo sapiens, UniProt P36888); assay: Binding affinity to human FLT3 incubated for 1 hr by kinase binding assay
T1 sequence (P36888 whole entry): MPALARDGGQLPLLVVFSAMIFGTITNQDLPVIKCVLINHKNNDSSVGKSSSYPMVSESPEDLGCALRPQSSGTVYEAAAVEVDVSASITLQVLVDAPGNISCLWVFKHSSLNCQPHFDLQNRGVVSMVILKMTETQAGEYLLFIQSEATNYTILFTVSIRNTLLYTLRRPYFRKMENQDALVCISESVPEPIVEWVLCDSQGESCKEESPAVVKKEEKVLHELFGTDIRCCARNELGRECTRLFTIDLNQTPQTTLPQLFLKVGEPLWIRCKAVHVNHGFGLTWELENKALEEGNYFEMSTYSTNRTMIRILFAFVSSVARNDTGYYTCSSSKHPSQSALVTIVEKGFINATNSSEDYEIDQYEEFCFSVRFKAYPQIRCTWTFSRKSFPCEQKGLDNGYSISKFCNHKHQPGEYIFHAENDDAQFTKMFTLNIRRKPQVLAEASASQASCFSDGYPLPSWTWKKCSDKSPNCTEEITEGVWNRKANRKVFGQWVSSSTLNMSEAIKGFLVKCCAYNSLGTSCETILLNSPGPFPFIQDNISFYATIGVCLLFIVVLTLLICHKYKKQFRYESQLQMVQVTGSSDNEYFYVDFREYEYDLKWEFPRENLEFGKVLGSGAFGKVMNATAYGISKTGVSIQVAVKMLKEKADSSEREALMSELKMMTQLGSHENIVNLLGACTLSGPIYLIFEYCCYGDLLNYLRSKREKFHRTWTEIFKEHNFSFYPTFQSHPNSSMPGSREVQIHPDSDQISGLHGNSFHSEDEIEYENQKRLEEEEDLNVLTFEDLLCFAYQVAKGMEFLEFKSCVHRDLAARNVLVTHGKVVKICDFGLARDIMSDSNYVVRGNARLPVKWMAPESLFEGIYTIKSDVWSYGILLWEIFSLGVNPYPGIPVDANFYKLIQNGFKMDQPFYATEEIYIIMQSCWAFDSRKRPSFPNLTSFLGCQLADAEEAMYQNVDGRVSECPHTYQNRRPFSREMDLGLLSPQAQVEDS

M14 = assay: Growth inhibition of human M14 cells after 48 hrs by sulforhodamine B assay; format: functional; conditions: M14, 48 h
HL-60(TB) = assay: Growth inhibition of human HL-60(TB) cells after 48 hrs by sulforhodamine B assay; format: functional; conditions: HL-60, 48 h
KM12 = assay: Cytotoxicity against human KM12 cells after 48 hrs by sulforhodamine B assay; format: cell-based; conditions: km12, 48 h
MOLT-4 = assay: Growth inhibition of human MOLT4 cells after 48 hrs by sulforhodamine B assay; format: functional; conditions: MOLT-4, 48 h
RPMI-8226 = assay: Growth inhibition of human RPMI8226 cells after 48 hrs by sulforhodamine B assay; format: functional; conditions: RPMI-8226, 48 h
HCC 2998 = assay: Growth inhibition of human HCC2998 cells after 48 hrs by sulforhodamine B assay; format: functional; conditions: HCC 2998, 48 h
[4] = target: T1, Receptor-type tyrosine-protein kinase FLT3; assay: Inhibition of human FLT3 using gamma-33P-ATP as substrate by scintillation counting
CCRF-CEM [5] = assay: Cytotoxicity against human CCRF-CEM cells after 48 hrs by sulforhodamine B assay; format: cell-based
CCRF-CEM [6] = assay: Growth inhibition of human CCRF-CEM cells after 48 hrs by sulforhodamine B assay; format: functional
IGROV-1 = assay: Growth inhibition of human IGROV1 cells after 48 hrs by sulforhodamine B assay; format: functional; conditions: IGROV-1, 48 h
SK-MEL-5 = assay: Growth inhibition of human SK-MEL-5 cells after 48 hrs by sulforhodamine B assay; format: functional; conditions: SK-MEL-5, 48 h
[7] = target: Mast/stem cell growth factor receptor Kit (Homo sapiens) (UniProt P10721); assay: Binding affinity to human KIT at 10 uM incubated for 1 hr by kinase binding assay relative to untreated control
Mast/stem cell growth factor receptor Kit (Homo sapiens), sequence (P10721 whole entry): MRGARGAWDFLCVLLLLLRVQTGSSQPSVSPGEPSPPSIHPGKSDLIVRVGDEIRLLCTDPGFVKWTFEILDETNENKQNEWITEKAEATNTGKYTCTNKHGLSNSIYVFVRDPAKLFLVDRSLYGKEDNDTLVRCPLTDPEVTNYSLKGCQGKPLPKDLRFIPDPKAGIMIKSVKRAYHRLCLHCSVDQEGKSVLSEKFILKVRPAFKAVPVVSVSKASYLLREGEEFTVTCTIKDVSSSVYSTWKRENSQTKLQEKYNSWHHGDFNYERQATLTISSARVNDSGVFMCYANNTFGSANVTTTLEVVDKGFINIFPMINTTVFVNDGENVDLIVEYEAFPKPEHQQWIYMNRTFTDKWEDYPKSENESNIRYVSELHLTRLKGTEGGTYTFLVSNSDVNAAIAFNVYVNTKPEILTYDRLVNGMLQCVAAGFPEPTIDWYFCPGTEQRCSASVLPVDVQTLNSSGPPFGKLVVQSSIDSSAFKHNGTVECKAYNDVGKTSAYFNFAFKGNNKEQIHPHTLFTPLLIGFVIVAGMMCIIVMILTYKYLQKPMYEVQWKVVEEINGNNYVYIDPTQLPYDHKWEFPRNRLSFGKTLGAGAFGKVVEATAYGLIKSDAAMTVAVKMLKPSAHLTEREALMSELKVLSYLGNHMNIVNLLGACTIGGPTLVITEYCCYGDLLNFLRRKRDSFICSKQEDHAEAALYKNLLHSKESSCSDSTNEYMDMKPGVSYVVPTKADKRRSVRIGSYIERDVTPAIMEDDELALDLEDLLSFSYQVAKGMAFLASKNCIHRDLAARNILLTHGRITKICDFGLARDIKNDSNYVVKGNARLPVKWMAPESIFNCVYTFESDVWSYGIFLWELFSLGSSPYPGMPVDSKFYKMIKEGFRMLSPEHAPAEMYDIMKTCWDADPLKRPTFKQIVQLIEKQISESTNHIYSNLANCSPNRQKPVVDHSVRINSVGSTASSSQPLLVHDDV

UACC-257 = assay: Growth inhibition of human UACC257 cells after 48 hrs by sulforhodamine B assay; format: functional; conditions: UACC-257, 48 h
SF-295 [8] = assay: Growth inhibition of human SF295 cells after 48 hrs by sulforhodamine B assay; format: functional; conditions: SF-295, 48 h
[9] = target: Mast/stem cell growth factor receptor Kit (Homo sapiens) (UniProt P10721); assay: Inhibition of human KIT using gamma-33P-ATP as substrate assessed as enzyme functional activity at 1 uM by scintillation counting relative to untreated control; design: scale not given: the % may be the effect or the level left
[10] = test system: Platelet-derived growth factor receptor alpha (Homo sapiens), P16234 [D842V]; assay: Inhibition of human PDGFRA D842V using gamma-33P-ATP as substrate assessed as enzyme functional activity at 1 uM by scintillation counting relative to untreated control; design: scale not given: the % may be the effect or the level left
Platelet-derived growth factor receptor alpha (Homo sapiens), P16234 [D842V], sequence (P16234 whole entry D842V): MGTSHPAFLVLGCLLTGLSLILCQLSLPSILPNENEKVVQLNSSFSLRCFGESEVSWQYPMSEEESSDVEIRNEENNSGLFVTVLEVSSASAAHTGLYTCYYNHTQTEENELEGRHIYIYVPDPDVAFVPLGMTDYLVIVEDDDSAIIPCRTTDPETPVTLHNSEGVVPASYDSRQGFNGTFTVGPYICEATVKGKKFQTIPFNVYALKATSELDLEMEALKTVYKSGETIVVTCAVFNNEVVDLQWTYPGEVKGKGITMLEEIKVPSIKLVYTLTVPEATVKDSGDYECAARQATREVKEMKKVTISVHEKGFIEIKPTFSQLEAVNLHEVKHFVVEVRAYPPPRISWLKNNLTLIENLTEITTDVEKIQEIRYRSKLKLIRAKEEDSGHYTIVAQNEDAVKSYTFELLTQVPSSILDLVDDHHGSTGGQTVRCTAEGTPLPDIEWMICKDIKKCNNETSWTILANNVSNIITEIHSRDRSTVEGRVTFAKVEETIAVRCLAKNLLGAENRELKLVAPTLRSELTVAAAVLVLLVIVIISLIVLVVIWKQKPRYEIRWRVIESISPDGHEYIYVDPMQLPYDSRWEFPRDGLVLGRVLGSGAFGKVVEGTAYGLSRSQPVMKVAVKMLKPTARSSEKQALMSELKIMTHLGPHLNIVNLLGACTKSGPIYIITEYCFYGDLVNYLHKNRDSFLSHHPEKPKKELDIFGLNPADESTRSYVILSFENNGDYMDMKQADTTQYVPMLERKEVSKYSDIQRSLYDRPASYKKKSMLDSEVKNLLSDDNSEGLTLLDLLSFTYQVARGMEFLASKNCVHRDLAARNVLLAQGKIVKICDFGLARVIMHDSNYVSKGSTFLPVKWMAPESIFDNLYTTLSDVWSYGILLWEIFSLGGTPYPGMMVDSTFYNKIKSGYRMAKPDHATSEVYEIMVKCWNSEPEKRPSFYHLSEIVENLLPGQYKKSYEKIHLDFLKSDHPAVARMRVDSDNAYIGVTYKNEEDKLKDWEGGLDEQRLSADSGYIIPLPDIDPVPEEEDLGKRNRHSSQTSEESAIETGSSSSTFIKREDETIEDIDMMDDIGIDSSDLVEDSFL

[11] = test system: Mast/stem cell growth factor receptor Kit (Homo sapiens), P10721 [V559D]; assay: Binding affinity to human KIT V559D mutant at 10 uM incubated for 1 hr by kinase binding assay relative to untreated control
Mast/stem cell growth factor receptor Kit (Homo sapiens), P10721 [V559D], sequence (P10721 whole entry V559D): as the sequence (P10721 whole entry) above, with V559D counted along it

Hs-578T = assay: Growth inhibition of human Hs578T cells after 48 hrs by sulforhodamine B assay; format: functional
OVCAR-4 = assay: Growth inhibition of human OVCAR4 cells after 48 hrs by sulforhodamine B assay; format: functional; conditions: OVCAR-4, 48 h
[12] = target: Platelet-derived growth factor receptor alpha (Homo sapiens) (UniProt P16234); assay: Binding affinity to human PDGFRA at 10 uM incubated for 1 hr by kinase binding assay relative to untreated control
Platelet-derived growth factor receptor alpha (Homo sapiens), sequence (P16234 whole entry): as the sequence (P16234 whole entry D842V) above, with V842D counted along it

[13] = test system: Mast/stem cell growth factor receptor Kit (Homo sapiens), P10721 [L576P]; assay: Binding affinity to human KIT L576P mutant at 10 uM incubated for 1 hr by kinase binding assay relative to untreated control
Mast/stem cell growth factor receptor Kit (Homo sapiens), P10721 [L576P], sequence (P10721 whole entry L576P): as the sequence (P10721 whole entry) above, with L576P counted along it

SF-295 [14] = assay: Cytotoxicity against human SF295 cells after 48 hrs by sulforhodamine B assay; format: cell-based; conditions: sf-295, 48 h
[15] = test system: Mast/stem cell growth factor receptor Kit (Homo sapiens), P10721 [V560G]; assay: Inhibition of human KIT V560G using gamma-33P-ATP as substrate assessed as enzyme functional activity at 1 uM by scintillation counting relative to untreated control; design: scale not given: the % may be the effect or the level left
Mast/stem cell growth factor receptor Kit (Homo sapiens), P10721 [V560G], sequence (P10721 whole entry V560G): as the sequence (P10721 whole entry) above, with V560G counted along it

MDA-MB-468 = assay: Growth inhibition of human MDA-MB-468 cells after 48 hrs by sulforhodamine B assay; format: functional; conditions: MDA-MB-468, 48 h

c1ccc(Cc2cnc(N3CCN(c4ncnc5ccccc45)CC3)nc2)cc1
TGI (PC-3): > 100 µM | TGI (CAKI-1): 39.3 µM | TGI (HOP-92): 24.2 µM | TGI (BT-549): 18.4 µM | TGI (MCF7): 58.2 µM | TGI (UO-31): 38.4 µM | TGI (Malme-3M): 33.6 µM | TGI (NCI-H23): 30.8 µM | TGI (OVCAR-8): 25.6 µM | LC50 (EKVX [1]): > 100 µM | LC50 (LOX IMVI): 44.3 µM | TGI (SK-MEL-28): 99.3 µM | TGI (EKVX [2]): 33.1 µM | Kd [3]: 0.46 µM | TGI (M14): 26.3 µM | TGI (HL-60(TB)): 41.8 µM | LC50 (KM12): 50.1 µM | TGI (MOLT-4): 40.6 µM | TGI (RPMI-8226): 21.8 µM | TGI (HCC 2998): 60.9 µM | IC50 [4]: 6.69 µM | LC50 (CCRF-CEM [5]): > 100 µM | TGI (CCRF-CEM [6]): 64.4 µM | TGI (IGROV-1): 63.3 µM | TGI (SK-MEL-5): 13.9 µM

CCc1cnc(N2CCN(C(=O)c3ccc(CNc4ncnc5ccccc45)cc3)CC2)nc1
TGI (PC-3): > 100 µM | TGI (CAKI-1): 94.8 µM | Activity [7]: > 50% | TGI (HOP-92): 80.1 µM | TGI (UACC-257): 26.8 µM | TGI (MCF7): 72.8 µM | TGI (SF-295 [8]): 23.1 µM | TGI (UO-31): 60.5 µM | TGI (Malme-3M): 42.2 µM | Activity [9]: 100% | TGI (OVCAR-8): > 100 µM | LC50 (EKVX [1]): > 100 µM | Activity [10]: 100% | Activity [11]: > 50% | LC50 (LOX IMVI): 97.3 µM | TGI (SK-MEL-28): > 100 µM | TGI (Hs-578T): > 100 µM | TGI (OVCAR-4): 58.8 µM | Activity [12]: > 50% | TGI (M14): 32.7 µM | Activity [13]: > 50% | TGI (HL-60(TB)): 38.6 µM | LC50 (KM12): 53.8 µM | LC50 (SF-295 [14]): > 100 µM | LC50 (CCRF-CEM [5]): > 100 µM | GI50 (CCRF-CEM [6]): 10 µM | TGI (CCRF-CEM [6]): 60.9 µM | TGI (IGROV-1): 49.8 µM | Activity [15]: 99%

O=C(c1cccc(Nc2ncnc3ccccc23)c1)N1CCN(c2ncc(Cc3ccccc3)cn2)CC1
TGI (MDA-MB-468): 3.47 µM | Activity [7]: > 50% | TGI (BT-549): 1.74 µM | TGI (UACC-257): 2.63 µM | Activity [9]: 100% | TGI (NCI-H23): 2.69 µM | LC50 (EKVX [1]): > 100 µM | Activity [10]: 96% | Activity [11]: > 50% | LC50 (LOX IMVI): 5.13 µM | TGI (Hs-578T): 7.41 µM | TGI (EKVX [2]): 4.9 µM | Activity [12]: > 50% | Activity [13]: > 50% | LC50 (KM12): 6.61 µM | TGI (RPMI-8226): 0.6 µM | LC50 (SF-295 [14]): > 100 µM | TGI (HCC 2998): 3.98 µM | TGI (SK-MEL-5): 1.2 µM | Activity [15]: 86%
